Data from BindingDB's records for doi:10.1016/j.bmcl.2015.03.051 (Mayo Clinic, 2015).

Assays:
[1] = biological target: T1, Cholecystokinin receptor type A (Homo sapiens, UniProt P32238); assay: Activity at CCK1R (unknown origin) expressed in CHO cells assessed as CCK EC50 measured as intracellular calcium responses at 100 nM (Rvb = 7 to 14 pM)
T1 sequence (P32238 whole entry): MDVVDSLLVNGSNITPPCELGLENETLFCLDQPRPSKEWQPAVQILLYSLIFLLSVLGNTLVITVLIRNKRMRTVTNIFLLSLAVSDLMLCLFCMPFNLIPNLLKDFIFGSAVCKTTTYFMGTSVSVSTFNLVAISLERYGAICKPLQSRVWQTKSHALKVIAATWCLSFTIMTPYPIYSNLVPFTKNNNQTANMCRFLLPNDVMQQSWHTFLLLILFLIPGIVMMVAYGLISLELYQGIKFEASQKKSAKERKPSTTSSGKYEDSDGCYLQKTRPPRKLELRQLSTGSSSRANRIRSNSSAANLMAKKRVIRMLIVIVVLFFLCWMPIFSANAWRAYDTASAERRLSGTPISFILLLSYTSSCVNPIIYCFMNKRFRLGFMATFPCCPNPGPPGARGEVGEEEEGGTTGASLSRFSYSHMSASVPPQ

[2] = biological target: T1, Cholecystokinin receptor type A; assay: Activity at CCK1R (unknown origin) expressed in CHO cells assessed as CCK EC50 measured as intracellular calcium responses at 1000 nM (Rvb = 7 to 14 pM)
[3] = biological target: T1, Cholecystokinin receptor type A
[4] = biological target: T1, Cholecystokinin receptor type A; remark: listed apart in the source

SMILES	EC50 [1] [nM]	EC50 [2] [nM]	IC50 [3] [nM]	IC50 [4] [nM]
O=C(CN1C(=O)C(NC(=O)Nc2ccccc2)C(=O)N(c2ccccc2)c2ccccc21)Nc1ccccc1 (stereo unspecified)	0.014	0.039		
COc1ccc(N(C)C(=O)CN2C(=O)C(NC(=O)Nc3ccccc3)C(=O)N(c3ccccc3)c3ccccc32)cc1 (stereo unspecified) [2-[2,4-Dioxo-5-phenyl-3-(3-phenyl-ureido)-2,3,4,5-tetrahydro-benzo[b][1,4]diazepin-1-yl]-N-(4-methoxy-phenyl)-N-methyl-acetamide]	0.051	0.120	14	25
